Laboratory results taken from patent US20120198764A1, “METHOD FOR REDUCING PHYTOTOXICITY” (Ishihara Sangyo Kaisha, Ltd., priority 2009, published 2012).
Where two headings read alike, the source gives them in different places.

Key:
Settings in all cases: in vivo
[1] = tested on: bentgrass (breed: pencross); test: Test Example 7: pot test, copper phthalocyanine or Prussian Blue applied 1 day before flazasulfuron
Procedure: (§1) On 13th day after the treatment with flazasulfuron, the state of growth of bentgrass was visually observed and evaluated in accordance with growth inhibition rate (%)=0 (equivalent to the non-treated area) to 100 (complete kill), and thereby the results shown in Table 1 were obtained. Further, the test was carried out in duplicate.
(§2) 1/1,000,000 ha pots were prepared, as the present invention area, comparative area and non-treated area, soil was put into them, and bentgrass (breed: pencross) in sod state was planted thereon. After the bentgrass root-took on soil, a spray liquid was prepared by diluting copper phthalocyanine or Prussian Blue with water to 1,000 times or 500 times, and the bentgrass in the present invention area was subjected to foliar treatment with the spray liquid in an amount of about 1,000 L/ha by a small spray gun. After 1 day, a spray liquid was prepared by diluting a predetermined amount (corresponding to flazasulfuron: 5 g a.i./ha) of SHIBAGEN DF (tradename, the same as in Test Example 1) with water containing 0.02 wt % of Kusa-rino (tradename, the same as in Test Example 1), and the bentgrass in the present invention area and comparative area were subjected to foliar treatment with the spray liquid in an amount of about 2,000 L/ha by a small spray gun.
On 8th day after the treatment with flazasulfuron, the state of growth of bentgrass was evaluated in the same manner as in Test Example 1, and thereby the results shown in Table7 were obtained. Further, the test was carried out in duplicate.

[2] = tested on: bentgrass (breed: pencross); test: Test Example 5: pot test, colorants applied 1 day before flazasulfuron
Procedure: as §1
1/1,000,000 ha pots were prepared, as the present invention area, comparative area and non-treated area, soil was put into them, and bentgrass (breed: pencross) in sod state was planted thereon. After the bentgrass root-took on soil, a spray liquid was prepared by diluting a colorant for turfgrass (tradename: Green Way (pigment containing metal ions), manufactured by Otsuka Chemical Co., Ltd.), (tradename: Green Way Sayaka (pigment containing metal ions), manufactured by Otsuka Chemical Co., Ltd.) or (tradename: Clear Green L (copper phthalocyanine), manufactured by Ohkawaya Co., Ltd.) with water to 50 times, and the bentgrass in the present invention area was subjected to foliar treatment with the spray liquid in an amount of about 2,000 L/ha by a small spray gun. […]
On 7th day after the treatment with flazasulfuron, the state of growth of bentgrass was evaluated in the same manner as in Test Example 1, and thereby the results shown in Table 5 were obtained. […]

[3] = tested on: bentgrass (breed: pencross); test: Test Example 1: pot test, TurfGreen BG applied 7 days before flazasulfuron
Procedure: 1/300,000 ha pots were prepared, as the present invention area, comparative area and non-treated area, soil was put into them, and bentgrass (breed: pencross) in sod state (state of mat) was planted thereon. With respect to the bentgrass in the present invention area, after the bentgrass root-took on soil, a spray liquid was prepared by diluting a colorant for turfgrass (tradename: TurfGreen BG (containing chlorinated copper phthalocyanine), manufactured by Nisso Green Co., Ltd.) with water to 50 times, and the bentgrass was subjected to foliar treatment with the spray liquid in an amount of about 2,000 L/ha by a small spray gun. […]
On 13th day after the treatment with flazasulfuron, the state of growth of bentgrass was visually observed and evaluated in accordance with growth inhibition rate (%)=0 (equivalent to the non-treated area) to 100 (complete kill), and thereby the results shown in Table 1 were obtained. […]

[4] = tested on: bentgrass (breed: pencross)
Procedure: as §1
as §2, with “Pigment Green 7” for “copper phthalocyanine or Prussian Blue”, “125” for “1,000 times or 500”, “10” for “5”
On 7th day after the treatment with flazasulfuron, the state of growth of bentgrass was evaluated in the same manner as in Test Example 1, and thereby the results shown in Table 9 were obtained. Further, the test was carried out in triplicate.

[5] = tested on: bentgrass (breed: pencross); test: Test Example 4: ground plot test, TurfGreen BG applied 7 days after flazasulfuron
Procedure: as §1
Among bentgrass (breed: pencross) planted on ground in sod state in 0.5 m^2 (5.0×10^−5 ha, 1 m×0.5 m) of the present invention area, comparative area and non-treated area, the bentgrasses in the present invention area and comparative area were subjected to foliar treatment with a spray liquid prepared by diluting a predetermined amount (corresponding to flazasulfuron: 6.25 g a.i./ha) of SHIBAGEN DF (tradename, the same as in Test Example 1) with water containing 0.02 wt % of Kusa-rino (tradename, the same as in Test Example 1) in an amount of about 2,000 L/ha by a hand portable pump sprayer. […]
Prior to the treatment with TurfGreen BG or on 7th day after the treatment with TurfGreen BG, the state of growth of bentgrass was evaluated in the same manner as in Test Example 1, and thereby the results shown in Table 4 were obtained. […]

[6] = tested on: bentgrass (breed: pencross); test: Test Example 8: pot test, Prussian Blue applied 5 days after flazasulfuron
Procedure: as §1
as §2, with “soil,” for “soil, a spray liquid was prepared by diluting copper phthalocyanine or Prussian Blue with water to 1,000 times or 500 times, and the bentgrass in the present invention area was subjected to foliar treatment with the spray liquid in an amount of about 1,000 L/ha by a small spray gun. After 1 day,”, “gun. […]” for “gun.”
On 7th day after the treatment with Prussian Blue, the state of growth of bentgrass was evaluated in the same manner as in Test Example 1, and thereby the results shown in Table 8 were obtained. […]

[7] = tested on: bentgrass (breed: pencross); test: Test Example 6: ground plot test, FULLGREEN S applied 1 day before or after flazasulfuron
Procedure: as §1
Among bentgrass (breed: pencross) planted on ground in sod state in 0.5 m^2 (5.0×10^−5 ha, 1 m×0.5 m) of the present invention area A, the present invention area B, comparative area and non-treated area, the bentgrass in the present invention area A, the present invention area B and comparative area were subjected to foliar treatment with a spray liquid prepared by diluting a predetermined amount (corresponding to flazasulfuron: 6.25 g a.i./ha) of SHIBAGEN DF (tradename, the same as in Test Example 1) with water containing 0.02 wt % of Kusa-rino (tradename, the same as in Test Example 1) in an amount of about 2,000 L/ha by a small spray gun. […]
On 7th day after the treatment with flazasulfuron, the state of growth of bentgrass was evaluated in the same manner as in Test Example 1, and thereby the results shown in Table 6 were obtained. […]

[8] = tested on: bentgrass (breed: pencross); test: Test Example 2: pot test, TurfGreen BG applied 1 day after flazasulfuron
Procedure: as §1
as §2, with “With respect” for “After the bentgrass root-took on soil, a spray liquid was prepared by diluting copper phthalocyanine or Prussian Blue with water”, “to” for “to 1,000 times or 500 times, and”, “and comparative area, after” for “was subjected to foliar treatment with”, “bentgrass root-took on soil,” for “spray liquid in an amount of about 1,000 L/ha by a small spray gun. After 1 day,”, “gun. […]” for “gun.”
On 7th day after the treatment with TurfGreen BG, the state of growth of bentgrass was evaluated in the same manner as in Test Example 1, and thereby the results shown in Table 2 were obtained. […]

[9] = tested on: bentgrass (breed: pencross); test: Test Example 3: ground plot test, TurfGreen BG applied 1 or 3 days before flazasulfuron
Procedure: as §1
Among bentgrass (breed: pencross) planted in sod state on ground in 0.5 m^2 (5.0×10^−5 ha, 1 m×0.5 m) in the present invention area A, the present invention area B, comparative area and non-treated area, the bentgrass in the present invention area A, the present invention area B and comparative area were subjected to foliar treatment with a spray liquid prepared by diluting a predetermined amount (corresponding to flazasulfuron: 6.25 g a.i./ha) of SHIBAGEN DF (tradename, the same as in Test Example 1) with water containing 0.02 wt % of Kusa-rino (tradename, the same as in Test Example 1) in an amount of about 2,000 L/ha by a hand portable pump sprayer. […]
On 14th day after the treatment with flazasulfuron, the state of growth of the bentgrass was evaluated in the same manner as in Test Example 1, and thereby the results shown in Table 3 were obtained. […]

Row | Molecule | State of growth of bentgrass, Growth inhibition rate (%) [1] | phytotoxicity due to flazasulfuron, compared with comparative area [1] | State of growth of bentgrass, Growth inhibition rate (%) [2] | State of growth of bentgrass, Growth inhibition rate (%) [3] | State of growth of bentgrass, Growth inhibition rate (%) [4] | State of growth of bentgrass, Growth inhibition rate (%) [5] | State of growth of bentgrass, Growth inhibition rate (%) [6] | State of growth of bentgrass, Growth inhibition rate (%) [7] | State of growth of bentgrass, Growth inhibition rate (%) [8] | State of growth of bentgrass, Growth inhibition rate (%) [9] | phytotoxicity due to flazasulfuron, compared with comparative area [4]
1 | [Cu+2].c1ccc2c(c1)-c1nc-2nc2[n-]c(nc3nc(nc4[n-]c(n1)c1ccccc41)-c1ccccc1-3)c1ccccc21 [copper phthalocyanine] | 40% | reduced |  |  |  |  |  |  |  |  | 
2 | COc1cc(OC)nc(NC(=O)NS(=O)(=O)c2ncccc2C(F)(F)F)n1 [flazasulfuron] | 55% |  | 53% | 50% | 56% | 30% | 54% | 31% | 48% | 40% | 
3 | Pigment Green 7 |  |  |  |  | 50% |  |  |  |  |  | reduced
